# Data reported in the Kinase Knowledgebase extract (Sharma et al. 2016).
# pIC50: −log10 of the molar value.
# What was measured:
# [1] = biological target: MAPK14 (human) (UniProt Q16539); experiment: LPS Induced TNF-alpha Production Inhibition (THP1 Cells)
# [2] = test system: MAPK14 (Balb/c mice); experiment: LPS Induced TNF-alpha Prodcution Inhibition (BALB/c Mice); conditions: dose or concentration not given here
# Sequence of MAPK14 (human) (Q16539 whole entry, looked up): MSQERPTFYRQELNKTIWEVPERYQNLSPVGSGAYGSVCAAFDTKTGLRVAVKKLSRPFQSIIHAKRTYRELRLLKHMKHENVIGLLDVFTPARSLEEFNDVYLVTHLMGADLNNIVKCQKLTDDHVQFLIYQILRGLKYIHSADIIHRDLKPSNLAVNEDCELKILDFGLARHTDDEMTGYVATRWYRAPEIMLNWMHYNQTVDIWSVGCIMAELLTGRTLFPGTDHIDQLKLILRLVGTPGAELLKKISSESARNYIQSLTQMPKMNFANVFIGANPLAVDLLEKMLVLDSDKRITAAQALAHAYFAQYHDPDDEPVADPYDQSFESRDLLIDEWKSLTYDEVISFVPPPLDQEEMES
SMILES,pIC50 [1],inhibition [2] [%]
Fc1ccc(-c2c(-c3ccncc3)[nH]c3nccnc23)cc1,5.96,
Fc1ccc(-c2c(-c3ccncc3)n(OCCN3CCCC3)c3cccnc23)cc1,9.92,
Fc1ccc(-c2c(-c3ccncc3)n(OCCN3CCOCC3)c3cccnc23)cc1,,56
OCCNc1cc(-c2[nH]c3nccnc3c2-c2ccc(F)cc2)ccn1,6.62,
Fc1ccc(-c2c(-c3ccncc3)[nH]c3cccnc23)cc1,,68
Fc1ccc(-c2c(-c3ccncc3)oc3cccnc23)cc1,,86
Fc1ccc(-c2c(-c3ccncc3)n(CCN3CCCCC3)c3cccnc23)cc1,9.52,
COn1c(-c2ccncc2)c(-c2ccc(F)cc2)c2ncccc21,9.34,75
N#CCCCn1c(-c2ccncc2)c(-c2ccc(F)cc2)c2nccnc21,5.05,
